Measurements reported in patent US20230103444A1 (The Regents of the University of Colorado, a Body Corporate, priority 2020, published 2023).
pIC50: −log10 of the molar value. Read-outs that look alike come from different tables or passages of the source.

Columns and labels:
SW620 tumor organoids = experiment: Tumor organoid cytotoxicity (CellTiter-Glo 3D)
HCT116 tumor organoids = experiment: Tumor organoid cytotoxicity (CellTiter-Glo 3D); format: cell-based, human
Description: Cell based cytotoxicity dose response and combination studies. […] Plates were then incubated for 3 days before treatment.
Cell Line Tumor Organoid Culture.
Tumor Organoid Cytotoxicity.

cat-CHD1L ATPase = target: T1, cat-CHD1L ATPase (Homo sapiens, UniProt Q86WJ1); experiment: CHD1L ATPase assay with recombinant catalytic domain (cat-CHD1L); format: biochemical; settings: for pIC50: Table 6, read-out: cat-CHD1L inhibition IC50; for inhibition at 20 µM: confirmed HTS hits, HTS at 20 μM, read-out: inhibition against cat-CHD1L ATPase; for IC50: units given with the values (nM, μM), read-out: activity in dose response studies against cat-CHD1L ATPase (IC50, FIG. 1A); for CHD1L enzyme inhibition, in words: recombinant cat-CHD1L
T1 construct: inferred from Ni-NTA / imidazole purification; made in house; host or cells: E. coli Rosetta 2 (DE3) pLysS; constructs were a gift from Helena Berglund, Karolinska Institute
T1 sequence (Q86WJ1 16-611 limits assumed): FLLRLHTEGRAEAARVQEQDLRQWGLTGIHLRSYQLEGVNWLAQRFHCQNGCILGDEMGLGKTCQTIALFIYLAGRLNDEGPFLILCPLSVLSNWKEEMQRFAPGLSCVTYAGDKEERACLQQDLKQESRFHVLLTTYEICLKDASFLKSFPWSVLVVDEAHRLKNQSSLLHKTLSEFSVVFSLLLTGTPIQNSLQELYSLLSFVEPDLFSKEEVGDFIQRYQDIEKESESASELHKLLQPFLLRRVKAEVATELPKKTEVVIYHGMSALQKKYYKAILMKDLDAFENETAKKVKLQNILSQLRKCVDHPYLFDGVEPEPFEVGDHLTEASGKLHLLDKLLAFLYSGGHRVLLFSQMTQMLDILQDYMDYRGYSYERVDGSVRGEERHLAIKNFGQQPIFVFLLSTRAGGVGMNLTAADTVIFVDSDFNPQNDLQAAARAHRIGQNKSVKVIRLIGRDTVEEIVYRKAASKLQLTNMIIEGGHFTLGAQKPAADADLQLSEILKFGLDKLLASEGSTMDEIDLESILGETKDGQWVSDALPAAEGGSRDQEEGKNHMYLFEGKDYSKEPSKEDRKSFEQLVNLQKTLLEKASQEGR
Description: All reactions were carried out using low volume non-binding surface 384-well plates (Corning Inc., Corning N.Y.). cat-CHD1L or fl-CHD1L (100 nM) and 200 nM c-Myc DNA or mononucelosome (Active Motif, Carlsbad, Calif.) were added to a buffer containing 50 mM Tris pH 7.5, 50 mM NaCl, 1 mM DTT, 5% glycerol, and the reaction was initiated by the addition of 10 μM ATP (New England Biolabs, Ipswich, Mass.) to a total volume of 10 μL and incubated at 37° C. for 1 h. ATPase activity was assayed by adding 500 nM of Phosphate Sensor (Life Technologies, Carlsbad, Calif.), containing labeled phosphate-binding protein, specifically labeled with the fluorophore MDCC, and measuring excitation (430 nm) and emission (450 nm) immediately on an EnVision® plate reader (PerkinElmer, Hopkinton, Mass.). An inorganic phosphate standard curve was used to convert the fluorescence to [Pi], and enzyme kinetics were determined using Prism8 (GraphPad Software, San Diego, Calif.).
Assay composition was the same as described above using cat-CHD1L, except that the reaction mixture volume was modified to accommodate addition of drug or DMSO. Using a Janus® liquid handler (PerkinElmer, Hopkinton, Mass.), a selected amount of compounds dissolved in 100% DMSO were mixed with 50 mM Tris pH 7.5, 50 mM NaCl, 1 mM DTT, 5% glycerol buffer to 200 μM in 10% DMSO. […] The negative control used was 1% DMSO and 10 mM EDTA was used as a positive control. Reactions were initiated with the addition of 10 μM ATP and incubated at 37° C. for 1 h. ATPase activity was measured by fluorescence by adding 500 nM Phosphate Sensor. cat-CHD1L was screened against a 20,000-compound diversity set from Life Chemicals (Woodbridge, Conn.) and a Kinase Inhibitor library from Selleck Chemicals (Houston, Tex.).
CHD1L Enzyme ATPase Assay. […] All reactions were carried out using low volume nonbinding surface 384-well plates (Corning Inc., Corning, N.Y.). […] The reaction was initiated by the addition of 10 μmol/L ATP (New England Biolabs, Ipswich, Mass.) to a total volume of 10 μL and incubated at 37° C. for 1 hour. ATPase activity was measured by adding 500 nmol/L of Phosphate Sensor (ThermoFisher, Waltham, Mass.) measuring excitation (430 nm) and emission (450 nm) immediately on an Envision plate reader (PerkinElmer, Waltham, Mass.). Background signal was determined by using all assay components excluding the enzyme.

[1] = Homo sapiens, SW-620, 72 h, read-out: 3 D Cytotoxicity 72 hr IC50 (μM) SW620
[2] = Homo sapiens, HCT-116, 72 h, Table 6, read-out: 3 D Cytotoxicity 72 hr IC50 (μM) HCT116
[3] = Homo sapiens, SW-620, read-out: Tumor Organoid Cytotoxicity IC50 (μM) SW620
[4] = Homo sapiens, HCT-116, single agent, Table 4A, read-out: Tumor Organoid Cytotoxicity IC50 (μM) HCT116
[5] = read-out: 3 D Cytotoxicity 72 hr IC50 (μM) SW620, Table 6

Row | pIC50 (cat-CHD1L ATPase) | SMILES | IC50 (SW620 tumor organoids; [1]) | IC50 (HCT116 tumor organoids; [2]) | IC50 (SW620 tumor organoids; [3]) | other results
1 | 5.62 | Cc1cc(NCc2ccc(NC(=O)Cc3cc(Br)cs3)cc2)nc(N2CCNCC2)n1 [Compound 6.57] | 14.6 µM | 10.8 µM | – | –
2 | – | Cc1cc(Nc2ccc(NC(=O)/C=C/c3c[nH]c4ccccc34)cc2)nc(N2CCCC2)n1 [Compound 6.8, (E)-3-(1H-indol-3-yl)-N-(4-((6-methyl-2-(pyrrolidin-1-yl)pyrimidin-4-yl)amino)phenyl)-acrylamide] | 4.3 µM | 6.8 µM | 3.6 µM | IC50 (HCT116 tumor organoids; [4]): 6.85 µM
3 | 5.92 | Cc1cc(NCc2ccc(NC(=O)Cc3cc(Br)cs3)cc2)nc(N2CCN(C)CC2)n1 [Compound 6.44] | 22.7 µM | 14 µM | – | –
4 | – | COc1ccc2[nH]cc(CC(=O)Nc3ccc(Nc4cc(C)nc(N5CCCC5)n4)cc3)c2c1 [Compound 6.22, 2-(5-methoxy-1H-indol-3-yl)-N-(4-((6-methyl-2-(pyrrolidin-1-yl)pyrimidin-4-yl)amino)phenyl) acetamide] | – | – | – | IC50 (SW620 tumor organoids; [5]): 11.3 µM; IC50 (SW620 tumor organoids; read-out: Tumor Organoid Cytotoxicity IC50 (μM) SW620, single agent, Table 4A, updated experimental, rounded to one decimal): 12.6 µM
5 | – | COc1cc(C)c(C(C)C)cc1S(=O)(=O)NCCN1CCOCC1 [Compound 3] | – | – | – | inhibition at 20 µM (cat-CHD1L ATPase): > 50%; IC50 (cat-CHD1L ATPase): 900 to 5000 nM
6 | < 4.70 | Cc1cc(Nc2ccc(NC(=O)Cn3ccnc3)cc2)nc(N2CCCC2)n1 [Compound 6.50] | > 40 µM | 26.2 µM | – | –
7 | 5.52 | COC(=O)C1CCCN1c1nc(C)cc(Nc2ccc(NC(=O)Cc3cccs3)cc2)n1 (stereo not shown) [Compound 6.34] | > 20 µM | – | – | –
8 | 5.85 | O=C(Cc1cc(Br)cs1)Nc1ccc(CNc2cc(C(F)(F)F)nc(N3CCCC3)n2)cc1 [Compound 6.58] | – | – | – | IC50 (SW620 tumor organoids; [5]): 2.2 µM; IC50 (HCT116 tumor organoids; Table 6, read-out: 3 D Cytotoxicity 72 hr IC50 (μM) HCT116): 7.8 µM; CHD1L enzyme inhibition, in words (cat-CHD1L ATPase): good enzyme inhibition
9 | 4.75 | Cc1cc(Nc2ccc(NC(=O)Cc3ccccn3)cc2)nc(N2CCCC2)n1 [Compound 6.42] | – | 20.9 µM | – | –
10 | 5.64 | Cc1cc(Nc2ccc(NC(=O)Cc3cc(Br)cs3)cc2)nc(N2CCCCC2)n1 [Compound 6.49] | 17 µM | 14.7 µM | – | –
11 | – | Cc1ccc(-c2ccc(S(=O)(=O)NCCN3CCOCC3)cc2)cc1C [Compound 2] | – | – | – | inhibition at 20 µM (cat-CHD1L ATPase): > 50%; IC50 (cat-CHD1L ATPase): 900 to 5000 nM
12 | – | O=S(=O)(NCCN1CCOCC1)c1ccc(C2CCCCC2)cc1 [Compound 1] | – | – | – | inhibition at 20 µM (cat-CHD1L ATPase): > 50%; IC50 (cat-CHD1L ATPase): 900 to 5000 nM
13 | – | Cc1cc(Nc2ccc(NC(=O)Cn3ccc4ccccc43)cc2)nc(N2CCCC2)n1 [Compound 6.24, 2-(1H-indol-1-yl)-N-(4-((6-methyl-2-(pyrrolidin-1-yl)pyrimidin-4-yl)amino)phenyl)acetamide] | 3 µM | – | 2.7 µM | –
14 | – | Cc1cc(Nc2ccc(NC(=O)Cn3cc(CC4CC4)c4ccccc43)cc2)nc(N2CCCC2)n1 [Compound 6.26, 2-(3-(cyclopropylmethyl)-1H-indol-1-yl)-N-(4-((6-methyl-2-(pyrrolidin-1-yl)pyrimidin-4-yl)amino)phenyl)acetamide] | 4.7 µM | – | 5.5 µM | –
15 | – | Cc1cc(Nc2ccc(NC(=O)CCc3c[nH]c4ccccc34)cc2)nc(N2CCCC2)n1 [Compound 6.6, 3-(1H-indol-3-yl)-N-(4-((6-methyl-2-(pyrrolidin-1-yl)pyrimidin-4-yl)amino)phenyl) propanamide] | > 40 µM | > 40 µM | > 40 µM | IC50 (HCT116 tumor organoids; [4]): > 30 µM
16 | – | Cc1cc(Nc2ccc(NC(=O)Cc3c[nH]c4ccc(Br)cc34)cc2)nc(N2CCCC2)n1 [Compound 6.23, 2-(5-bromo-1H-indol-3-yl)-N-(4-((6-methyl-2-(pyrrolidin-1-yl)pyrimidin-4-yl)amino)phenyl) acetamide] | – | – | 5.7 µM | –
17 | – | Cc1cc(Nc2ccc(NC(=O)Cc3cn(S(=O)(=O)c4ccc(C(F)(F)F)cc4)c4ccccc34)cc2)nc(N2CCCC2)n1 [Compound 6.29, N-(4-((6-methyl-2-(pyrrolidin-1-yl)pyrimidin-4-yl)amino)phenyl)-2-(1-((4-(trifluoromethyl)phenyl)sulfonyl)-1H-indol-3-yl)acetamide] | 5.4 µM | – | 5.1 µM | –
18 | – | Cc1cc(Nc2ccc(NC(=O)Cc3c[nH]c4ncccc34)cc2)nc(N2CCCC2)n1 [Compound 6.20, N-(4-((6-methyl-2-(pyrrolidin-1-yl)pyrimidin-4-yl)amino)phenyl)-2-(1H-pyrrolo[2,3-b]pyridin-3-yl)acetamide] | 2.2 µM | – | 2.1 µM | –
19 | 4.99 | Cc1cc(Nc2ccc(NC(=O)Cc3cccnc3)cc2)nc(N2CCCC2)n1 [Compound 6.43] | – | 19.1 µM | – | –
20 | < 4.70 | Cc1cc(Nc2ccc(NC(=O)Cc3cc(Br)cs3)cc2)nc(N2CCCC2C(=O)O)n1 (stereo not shown) [Compound 6.36] | > 20 µM | – | – | –
21 | – | Cc1cc(Nc2ccc(NC(=O)Cc3c[nH]c4ccc(O)cc34)cc2)nc(N2CCCC2)n1 [Compound 6.25, 2-(5-hydroxy-1H-indol-3-yl)-N-(4-((6-methyl-2-(pyrrolidin-1-yl)pyrimidin-4-yl)amino)phenyl) acetamide] | 17.6 µM | – | 19.7 µM | –
22 | – | Cc1cc(Nc2ccc(NC(=O)CC3C(=O)Nc4ccccc43)cc2)nc(N2CCCC2)n1 (stereo not shown) [Compound 6.30, N-(4-((6-methyl-2-(pyrrolidin-1-yl)pyrimidin-4-yl)amino)phenyl)-2-(2-oxoindolin-3-yl) acetamide] | 6.1 µM | – | 6 µM | –
23 | 5.74 | COC(=O)C1CCCN1c1nc(C)cc(Nc2ccc(NC(=O)Cc3cc(Br)cs3)cc2)n1 (stereo not shown) [Compound 6.35] | 8.6 µM | – | – | pIC50 (SW620 tumor organoids; Homo sapiens, SW-620, read-out: IC50 of cytotoxicity in SW620 cells): > 5.00; CHD1L enzyme inhibition, in words (cat-CHD1L ATPase): good enzyme inhibition
24 | – | CCc1ccc2[nH]cc(CC(=O)Nc3ccc(Nc4cc(C)nc(N5CCCC5)n4)cc3)c2c1 [Compound 6.27, 2-(5-ethyl-1H-indol-3-yl)-N-(4-((6-methyl-2-(pyrrolidin-1-yl)pyrimidin-4-yl)amino)phenyl) acetamide] | 3 µM | – | 2.1 µM | –
25 | – | Cc1cc(Nc2ccc(NC(=O)c3cn(C)c4ccccc34)cc2)nc(N2CCCC2)n1 [Compound 6.19, 1-methyl-N-(4-((6-methyl-2-(pyrrolidin-1-yl)pyrimidin-4-yl)amino)phenyl)-1H-indole-3-carboxamide] | 7.7 µM | > 40 µM | 7.7 µM | IC50 (HCT116 tumor organoids; [4]): > 30 µM
26 | – | Cc1cc(Nc2ccc(NC(=O)CCCc3c[nH]c4ccccc34)cc2)nc(N2CCCC2)n1 [Compound 6.7, 4-(1H-indol-3-yl)-N-(4-((6-methyl-2-(pyrrolidin-1-yl)pyrimidin-4-yl)amino)phenyl)butanamide] | 13 µM | 17.6 µM | 12.7 µM | IC50 (HCT116 tumor organoids; [4]): 17.6 µM
